Experimental data as given in paper PMC5190008, “BO-1055, a novel DNA cross-linking agent with remarkable low myelotoxicity shows potent activity in sarcoma models” (Oncotarget, 2016).

Columns and labels:
[1] = In vivo toxicity testing: complete blood counts, renal and liver function tests; details: C57 healthy mice
Source text: However myelotoxicity has been a challenge, resulting in delay in treatment cycles and infectious complications. Hematopoietic toxicity was partly alleviated by the administration of G-CSF [32] and allowed dose-escalation. […] Overcoming hematopoietic and organ toxicities will allow us to administer chemotherapy at a higher dose and at a shorter interval, which can potentially result in better cure rates. […] This was also seen in the in vivo toxicity study in C57 healthy mice where hematologic toxicity was not observed at day 10 after 5 doses of BO-1055 at 30mg/kg/dose (Supplementary Table 1). […]
Supplementary table 1. Complete blood counts, renal and […] function tests in C57 healthy mice (n=4 per group) in control and treatment groups. Treatment group received BO--1055 at 30mg/kg/dose on days […]
Control group BO--1055 group Control group BO--1055 group baseline baseline day 10 day 10
Mean SD Mean SD Mean SD Mean SD

A673 cells = assay: Drug combination study (Alamar Blue, Chou-Talalay combination index); type: cell-based, human
Protocol: The AlamarBlue® cell proliferation assay was used to test the effect of a single drug and a combination of drugs. A673 cells (5 × 10^3 cells/well) were added to 96 well plates in triplicate. After 12h incubation, BO-1055 and a second drug (Topotecan, SN38, Doxorubicin or PU-H71) were added simultaneously in a lattice format in varying concentrations. Plates were read after 72h drug exposure. Combination indices were derived as described below to identify the interaction in two-drug combinations.
Data are presented as mean±S.E.M. of at least three independent experiments done in triplicate. The comparison of means between treated and control mice was performed using two-tailed T-test or ANOVA (for more than two groups) as implemented in GraphPad Prism (version 4; GraphPad Software). Graphpad Prism software was used to plot concentration-effect curves and determine the drug concentration that inhibited the growth of cell lines by 50% compared to the control (IC50). A p-value of 0.05 or less was considered significant. Combination index (CI) values, as calculated by CompuSyn software (Chou and Martin, 2007), were used to evaluate the interaction between BO-1055 and a second drug (Topotecan, SN38, Doxorubicin or PU-H71). The Chou-Talalay method was used to quantify the synergism (CI < 1), additive effect (CI = 1) and antagonism (CI > 1) of various drug combinations.

leukemia cell lines = system: leukemia cell lines; design: method as in PMID 21106377; details: leukemia cell lines ref 6; cited from earlier work
[2] = system: caspase 3/7 in A673 cells; assay: Caspase 3/7 activity (ApoTox-Glo Triplex Assay); type: cell-based, human; details: A673, 48h and 72h, concentration dependent
Protocol: A673 cells were plated at a density of 5 × 10^3 cells/well in 96 well plates. At 48h and 72h post drug exposure, 100μl of Caspase-Glo 3/7 reagent provided in the ApoTox -Glo Triplex Assay (Promega, USA) was added as per the protocol and the luminescence, which indicates caspase activation, was measured using the Synergy H1 hybrid microplate reader.

A673 spheroids = assay: Spheroid assay in 3D culture (methylcellulose); type: cell-based, human
Protocol: A673 cells were seeded on flat bottom non attachment 24 well plates (1000 cells/well) in triplicate using 1.2 % methylcellulose (Dow Chemical, Waterloo, NY) mixed with 20% FCS and specified concentrations of BO-1055 or 4HC as shown in Figure 1D. Samples were incubated at 37°C / 5 % CO2 and colonies were scored 14 days after plating.

[3] = 30mg/kg/dose on days 1,3,5,8 and 10, day 10, mean, n=4

CN(C)CCNC(=O)c1cccc(NC(=O)Nc2ccc(N(CCCl)CCCl)cc2)c1 [BO-1055]
ALT [1, 3]: 89.50 U/L
AST [1, 3]: 74.25 U/L
BASO [1, 3]: 0.45%
BASO# [1, 3]: 0.02 K/uL
BUN [1, 3]: 24.50 mg/dL
BUN/CREA ratio [1, 3]: 125.40
CREA [1, 3]: 0.20 mg/dL
DBIL [1, 3]: 0.00 mg/dL
EO [1, 3]: 2.93%
EO# [1, 3]: 0.13 K/uL
GLU [1, 3]: 166.00 mg/dL
HCT [1, 3]: 46.30%
HGB [1, 3]: 13.08 g/dL
IBIL [1, 3]: 0.13 mg/dL
LYMPH [1, 3]: 51.63%
LYMPH# [1, 3]: 2.90 K/uL
MCH [1, 3]: 14.40 pg
MCHC [1, 3]: 28.28 g/dL
MCV [1, 3]: 51.03 fL
MONO [1, 3]: 7.80%
MONO# [1, 3]: 0.39 K/uL
MPV [1, 3]: 6.38 fL
NEUT [1, 3]: 37.20%
NEUT# [1, 3]: 1.90 K/uL
PDW [1, 3]: 7.40 fL
PLT [1, 3]: 1108.25 K/uL
RBC [1, 3]: 9.08 M/uL
RDW-CV [1, 3]: 23.18%
RDW-SD [1, 3]: 32.48 fL
RET [1, 3]: 4.72%
RET# [1, 3]: 426.88 K/uL
TBIL [1, 3]: 0.23 mg/dL
TP [1, 3]: 3.77 g/dL
WBC# [1, 3]: 5.34 K/uL
change in hematocrit, platelet count or neutrophil count ([1]; day 10): did not reveal a significant change
hematologic toxicity ([1]; day 10 after 5 doses at 30mg/kg/dose): not observed
drug interaction (combination index) (A673 cells; BO-1055 combined with PU-H71, A673, 72h): synergistic
drug interaction (combination index) (A673 cells; BO-1055 combined with SN-38, A673, 72h): highly synergistic
drug interaction (combination index) (A673 cells; BO-1055 combined with doxorubicin, A673, 72h): synergistic
drug interaction (combination index) (A673 cells; BO-1055 combined with topotecan, A673, 72h): synergistic
cross resistance to taxol or vinblastine (leukemia cell lines): little or no cross resistance
caspase 3/7 activity [2]: Activation
concentration giving complete inhibition of spheroids (A673 spheroids; A673 spheroids in methylcellulose, scored 14 days after plating): 0.5 µM
fold lower concentration inhibiting A673 spheroids compared to 4-HC (A673 spheroids; BO-1055 vs 4-HC): 10 fold
